According to patent US9212151B2, “Heterocyclic compounds useful for kinase inhibition” (Amitech Therapeutic Solutions, Inc., priority 2010, dated 2015):

Experiment: MTT cell viability assay, compounds at 5, 1 and 0.2 μM, 48 hours
Type: cell-based
Details: human, A549 tumor cells, 0.2 μM
Description: MTT assay is used to determine cell proliferation, percent of viable cells, and cytotoxicity. MTT (3-[4,5-dimethylthiazol-2-yl]2,5-diphenyltetrazolium bromide) is a yellow dye, which can be absorbed by the living cells and be reduced to purplish blue formazan crystals by succinate tetrazolium reductase in mitochondria. Formazan formation can therefore be used to assess and determine the survival rate of cells.
Tumor cells (A549) were plated at 2500 cells/well of a 96-well plate in complete growth medium (DMEM+10% FBS, antibiotic/antimycotic, fungizone, L-glutamine, sodium pyruvate, and non-essential amino acids). The cells were allowed to grow overnight. After cell proliferation, the cells were washed and re-suspended in fresh culture medium and placed in 96 well plates.
To each of the 96 well plates containing A549 and a control, 5, 1, and 0.2 μM of the exemplary compounds 1-200 were add. The 96 well plates were incubated for 48 hours. Cell viability was measured by adding MTT (Sigma) at 5 mg/ml for 4 h to the cells and then removing the medium and resuspending each well in 50 μl DMSO to solubilize the crystals. The 96-well plates were read on a plate-scanning spectrophotometer (BioTek) at an absorbance of […]. The survival rate of cells was calculated based on the measurement of absorption at the 570 nm wavelength by enzyme immunoassay analyzer.

Compound	viability at 48 h, 0.2 µM [%]
FC(F)(F)c1cccc(Nc2nnc(-c3ccc(Oc4ccnc5ccccc45)cc3)s2)c1 [Compound 47]	> 70
CSc1nc(N)cc(Oc2cccc(-c3nnc(Nc4cccc(C(F)(F)F)c4)s3)c2)n1 [Compound 48]	> 70
COc1ccc2c(Oc3cccc(-c4nnc(Nc5cccc(C(F)(F)F)c5)s4)c3)ccnc2c1 [Compound 49]	> 70
Cc1nccc(Oc2ccc(-c3nnc(Nc4cccc(C(F)(F)F)c4)[nH]3)cc2)n1 [Compound 51]	> 70
CCOc1cc(Oc2ccc(-c3nnc(Nc4cccc(C(F)(F)F)c4)[nH]3)cc2)nc(N)n1 [Compound 52]	> 70
COCCOc1cc(Oc2ccc(-c3nnc(Nc4cccc(C(F)(F)F)c4)[nH]3)cc2)nc(N)n1 [Compound 53]	> 70
Cc1cc(Oc2cccc(-c3nnc(Nc4cccc(C(F)(F)F)c4)[nH]3)c2)nc(N)n1 [Compound 54]	> 70
Cc1nccc(Oc2cccc(-c3nnc(Nc4cccc(C(F)(F)F)c4)[nH]3)c2)n1 [Compound 55]	50 to 70
CSc1nc(Oc2cccc(-c3nnc(Nc4cccc(C(F)(F)F)c4)[nH]3)c2)c2cc[nH]c2n1 [Compound 56]	> 70
CCOc1cc(Oc2cccc(-c3nnc(Nc4cccc(C(F)(F)F)c4)[nH]3)c2)nc(N)n1 [Compound 57]	> 70
COCCOc1cc(Oc2cccc(-c3nnc(Nc4cccc(C(F)(F)F)c4)[nH]3)c2)nc(N)n1 [Compound 58]	> 70
Nc1cc(Oc2ccc(-c3nnc(Nc4cccc(C(F)(F)F)c4)o3)cc2)ccn1 [Compound 59]	> 70
FC(F)(F)c1cccc(Nc2nnc(-c3cccc(Oc4ncnc5[nH]ccc45)c3)o2)c1 [Compound 60]	> 70
Nc1cc(Oc2ccc(-c3nnc(Nc4cccc(C(F)(F)F)c4)[nH]3)cc2)nc(NCCO)n1 [Compound 61]	> 70
NCCSc1nc(N)cc(Oc2ccc(-c3nnc(Nc4cccc(C(F)(F)F)c4)[nH]3)cc2)n1 [Compound 62]	> 70
C[S+]([O-])c1nc(N)cc(Oc2ccc(-c3nnc(Nc4cccc(C(F)(F)F)c4)[nH]3)cc2)n1 (stereo not drawn) [Compound 63]	> 70
CS(=O)(=O)c1nc(N)cc(Oc2ccc(-c3nnc(Nc4cccc(C(F)(F)F)c4)[nH]3)cc2)n1 [Compound 64]	> 70
CSc1nc(N)cc(Oc2ccc(-c3nnc(Nc4cccc(C)c4)[nH]3)cc2)n1 [Compound 65]	> 70
CSc1nc(N)cc(Oc2ccc(-c3nnc(Nc4ccc(Cl)c(C(F)(F)F)c4)[nH]3)cc2)n1 [Compound 66]	> 70
CSc1nc(N)cc(Oc2ccc(-c3nnc(Nc4cc(C)ccc4C)[nH]3)cc2)n1 [Compound 67]	50 to 70
FC(F)(F)c1cccc(Nc2nnc(-c3ccc(Oc4ccnc5[nH]ccc45)cc3)[nH]2)c1 [Compound 68]	> 70
Nc1cc(Oc2ccc(-c3nnc(Nc4cccc(C(F)(F)F)c4)[nH]3)cc2)c2ccccc2n1 [Compound 69]	> 70

Same assay, conditions: human, A549 tumor cells, 1 μM

Compound	viability at 48 h, 1 µM [%]
FC(F)(F)c1cccc(Nc2nnc(-c3ccc(Oc4ccnc5ccccc45)cc3)s2)c1 [Compound 47]	> 70
CSc1nc(N)cc(Oc2cccc(-c3nnc(Nc4cccc(C(F)(F)F)c4)s3)c2)n1 [Compound 48]	> 70
COc1ccc2c(Oc3cccc(-c4nnc(Nc5cccc(C(F)(F)F)c5)s4)c3)ccnc2c1 [Compound 49]	> 70
Cc1nccc(Oc2ccc(-c3nnc(Nc4cccc(C(F)(F)F)c4)[nH]3)cc2)n1 [Compound 51]	50 to 70
CCOc1cc(Oc2ccc(-c3nnc(Nc4cccc(C(F)(F)F)c4)[nH]3)cc2)nc(N)n1 [Compound 52]	> 70
COCCOc1cc(Oc2ccc(-c3nnc(Nc4cccc(C(F)(F)F)c4)[nH]3)cc2)nc(N)n1 [Compound 53]	> 70
Cc1cc(Oc2cccc(-c3nnc(Nc4cccc(C(F)(F)F)c4)[nH]3)c2)nc(N)n1 [Compound 54]	< 50
Cc1nccc(Oc2cccc(-c3nnc(Nc4cccc(C(F)(F)F)c4)[nH]3)c2)n1 [Compound 55]	50 to 70
CSc1nc(Oc2cccc(-c3nnc(Nc4cccc(C(F)(F)F)c4)[nH]3)c2)c2cc[nH]c2n1 [Compound 56]	> 70
CCOc1cc(Oc2cccc(-c3nnc(Nc4cccc(C(F)(F)F)c4)[nH]3)c2)nc(N)n1 [Compound 57]	> 70
COCCOc1cc(Oc2cccc(-c3nnc(Nc4cccc(C(F)(F)F)c4)[nH]3)c2)nc(N)n1 [Compound 58]	> 70
Nc1cc(Oc2ccc(-c3nnc(Nc4cccc(C(F)(F)F)c4)o3)cc2)ccn1 [Compound 59]	> 70
FC(F)(F)c1cccc(Nc2nnc(-c3cccc(Oc4ncnc5[nH]ccc45)c3)o2)c1 [Compound 60]	> 70
Nc1cc(Oc2ccc(-c3nnc(Nc4cccc(C(F)(F)F)c4)[nH]3)cc2)nc(NCCO)n1 [Compound 61]	> 70
NCCSc1nc(N)cc(Oc2ccc(-c3nnc(Nc4cccc(C(F)(F)F)c4)[nH]3)cc2)n1 [Compound 62]	> 70
C[S+]([O-])c1nc(N)cc(Oc2ccc(-c3nnc(Nc4cccc(C(F)(F)F)c4)[nH]3)cc2)n1 (stereo not drawn) [Compound 63]	> 70
CS(=O)(=O)c1nc(N)cc(Oc2ccc(-c3nnc(Nc4cccc(C(F)(F)F)c4)[nH]3)cc2)n1 [Compound 64]	> 70
CSc1nc(N)cc(Oc2ccc(-c3nnc(Nc4cccc(C)c4)[nH]3)cc2)n1 [Compound 65]	> 70
CSc1nc(N)cc(Oc2ccc(-c3nnc(Nc4ccc(Cl)c(C(F)(F)F)c4)[nH]3)cc2)n1 [Compound 66]	> 70
CSc1nc(N)cc(Oc2ccc(-c3nnc(Nc4cc(C)ccc4C)[nH]3)cc2)n1 [Compound 67]	< 50
FC(F)(F)c1cccc(Nc2nnc(-c3ccc(Oc4ccnc5[nH]ccc45)cc3)[nH]2)c1 [Compound 68]	50 to 70
Nc1cc(Oc2ccc(-c3nnc(Nc4cccc(C(F)(F)F)c4)[nH]3)cc2)c2ccccc2n1 [Compound 69]	> 70

Same assay, conditions: human, A549 tumor cells, 5 μM

Compound	viability at 48 h, 5 µM [%]
FC(F)(F)c1cccc(Nc2nnc(-c3ccc(Oc4ccnc5ccccc45)cc3)s2)c1 [Compound 47]	> 70
CSc1nc(N)cc(Oc2cccc(-c3nnc(Nc4cccc(C(F)(F)F)c4)s3)c2)n1 [Compound 48]	> 70
COc1ccc2c(Oc3cccc(-c4nnc(Nc5cccc(C(F)(F)F)c5)s4)c3)ccnc2c1 [Compound 49]	50 to 70
Cc1nccc(Oc2ccc(-c3nnc(Nc4cccc(C(F)(F)F)c4)[nH]3)cc2)n1 [Compound 51]	< 50
CCOc1cc(Oc2ccc(-c3nnc(Nc4cccc(C(F)(F)F)c4)[nH]3)cc2)nc(N)n1 [Compound 52]	> 70
COCCOc1cc(Oc2ccc(-c3nnc(Nc4cccc(C(F)(F)F)c4)[nH]3)cc2)nc(N)n1 [Compound 53]	< 50
Cc1cc(Oc2cccc(-c3nnc(Nc4cccc(C(F)(F)F)c4)[nH]3)c2)nc(N)n1 [Compound 54]	< 50
Cc1nccc(Oc2cccc(-c3nnc(Nc4cccc(C(F)(F)F)c4)[nH]3)c2)n1 [Compound 55]	< 50
CSc1nc(Oc2cccc(-c3nnc(Nc4cccc(C(F)(F)F)c4)[nH]3)c2)c2cc[nH]c2n1 [Compound 56]	> 70
CCOc1cc(Oc2cccc(-c3nnc(Nc4cccc(C(F)(F)F)c4)[nH]3)c2)nc(N)n1 [Compound 57]	> 70
COCCOc1cc(Oc2cccc(-c3nnc(Nc4cccc(C(F)(F)F)c4)[nH]3)c2)nc(N)n1 [Compound 58]	> 70
Nc1cc(Oc2ccc(-c3nnc(Nc4cccc(C(F)(F)F)c4)o3)cc2)ccn1 [Compound 59]	> 70
FC(F)(F)c1cccc(Nc2nnc(-c3cccc(Oc4ncnc5[nH]ccc45)c3)o2)c1 [Compound 60]	> 70
Nc1cc(Oc2ccc(-c3nnc(Nc4cccc(C(F)(F)F)c4)[nH]3)cc2)nc(NCCO)n1 [Compound 61]	> 70
NCCSc1nc(N)cc(Oc2ccc(-c3nnc(Nc4cccc(C(F)(F)F)c4)[nH]3)cc2)n1 [Compound 62]	> 70
C[S+]([O-])c1nc(N)cc(Oc2ccc(-c3nnc(Nc4cccc(C(F)(F)F)c4)[nH]3)cc2)n1 (stereo not drawn) [Compound 63]	50 to 70
CS(=O)(=O)c1nc(N)cc(Oc2ccc(-c3nnc(Nc4cccc(C(F)(F)F)c4)[nH]3)cc2)n1 [Compound 64]	> 70
CSc1nc(N)cc(Oc2ccc(-c3nnc(Nc4cccc(C)c4)[nH]3)cc2)n1 [Compound 65]	50 to 70
CSc1nc(N)cc(Oc2ccc(-c3nnc(Nc4ccc(Cl)c(C(F)(F)F)c4)[nH]3)cc2)n1 [Compound 66]	< 50
CSc1nc(N)cc(Oc2ccc(-c3nnc(Nc4cc(C)ccc4C)[nH]3)cc2)n1 [Compound 67]	< 50
FC(F)(F)c1cccc(Nc2nnc(-c3ccc(Oc4ccnc5[nH]ccc45)cc3)[nH]2)c1 [Compound 68]	< 50
Nc1cc(Oc2ccc(-c3nnc(Nc4cccc(C(F)(F)F)c4)[nH]3)cc2)c2ccccc2n1 [Compound 69]	> 70
